The record followed here is patent US20210228463A1, “COMPOSITION FOR FAT FORMATION INHIBITION AND BODY FAT REDUCTION, CONTAINING HYDRANGENOL AS ACTIVE INGREDIENT” (COSMAX BIO CO., LTD., priority 2019, published 2021).

Assay [1] deals with mammalian target of rapamycin (mTOR). Put plainly: Western blotting of p-mTOR in adipocytes. Format: cell-based. The conditions noted are these: 3T3-L1 differentiated for 10 days, hydrangenol 2.5 ug/ml, 24 hours, FIG. 3. As to the method:
(§1) The mechanism of reducing triglyceride in adipocytes was examined for the hydrangenol-containing hydrangea (Hydrangea serrata) and hydrangenol. A pre-adipocyte 3T3-L1 was differentiated for 10 days and treated with hydrangea (Hydrangea serrata) (25 ug/ml) and hydrangenol (2.5 ug/ml) for 24 hours, respectively. Thereafter, the cells were lysed using a modified LIPA buffer, and each 20 ug thereof was used for analysis. p-mTOR(ab109268, Abcam), p-FOXO1(9461S, Cell Signaling), PPARγ(sc-7273, Santa Cruz), and β-actin(A5316, Sigma) primary antibodies were used for analysis, respectively.

Another assay deals with white adipocytes. The experiment in a line: Adipocyte size-reducing effects of HG. Format: in vivo, mice. The conditions noted are these: epididymal fat, HG administered; FIG. 16. As to the method:
To analyze in vivo anti-obesity efficacy of HG, animal models of obesity were prepared. 8-week-old male C57BL/6N mice (SPF grade, 20±2 g, Orient Bio) were set into 7 groups as follows, and 10 mice per each group were tested: as normal control groups, normal mice (con) with no high fat diet and no administration, and obese mice (HFD) with induction of obesity by 30% high fat diet and no administration, and as a positive control group, obese mice with oral administration of orlistat which is an anti-obesity agent. As experimental groups, obese mice with oral administration of HG of 20 mg/kg, 40 mg/kg, or 80 mg/kg, and normal mice with oral administration of HG of 80 mg/kg were used. Mice were administered with HG at the same time with induction of obesity, and HG was administered for 5 days per week for 12 weeks. A dark: light cycle was maintained at intervals of 12 hours: 12 hours, and mice were allowed to free access to water.
For histological analysis, the epididymal fat tissues of mice were fixed in 4% paraformalin. Dehydration was performed several times through graded alcohol series and washing, and each tissue was embedded in paraffin. Each tissue section was cut at a thickness of 4 μm, and stained with hematoxylin and eosin. In order to examine the size of white adipocytes, the adipocyte area of each section was measured with cellSence software (Olympus Co., USA). […]

In another assay the test system is forkhead box 01 (FoxO1). Put plainly: Western blotting of p-FOXO1 in adipocytes. Format: cell-based. The conditions noted are these: 3T3-L1 differentiated for 10 days, hydrangenol 2.5 ug/ml, 24 hours, FIG. 3. As to the method: as §1
Background: In western blotting, separated proteins are transferred to a membrane and probed.

The subject of the next assay is 3T3-L1 cells. Put plainly: Fat accumulation inhibition in adipocytes (Oil Red O staining). The class given is cell-based. Particulars: 3T3-L1 adipocytes, hydrangenol 2.5 ug/ml. As to the method: In this experiment, to induce adipocyte differentiation, 3T3-L1 cells were dispensed onto a plate and cultured in a 10% BS medium until the cell density reached 100%. At the cell differentiation stage, hydrangenol-containing hydrangea (Hydrangea serrata) (25 ug/ml), hydrangenol (2.5 ug/ml) or a positive control pioglatazone (10 uM) was added to a 10% FBS differentiation medium (5 μg/ml of insulin, 1 μM dexametasone, 0.5 mM 3-isobutyl-1-methylxanthine), respectively. After 10 days of treatment oil Red-O staining and quantitative analysis were performed to determine how much fat accumulation was inhibited. For visual evaluation, images were taken after staining, and then the stained cells were completely dried, dissolved in dimethyl sulfoxide (DMSO), transferred to a 96-well plate, and absorbance at 450 nm was measured.

A short description of assay [2]: Changes of blood triglyceride and blood cholesterol by WHS. The class given is in vivo. The conditions noted are these: blood, obese mice (HFD) + oral orlistat. As to the method: (§2) To analyze in vivo anti-obesity efficacy of WHS, animal models of obesity were first prepared. 8-week-old male C57BL/6N mice (specific-pathogen-free (SPF) grade, 20±2 g, Orient Bio) were set into 7 groups as follows, and 10 mice per each group were tested: as normal control groups, normal mice (con) with no high fat diet and no administration, and obese mice (HFD) with induction of obesity by 30% high fat diet and no administration, and as a positive control group, obese mice with oral administration of orlistat which is an anti-obesity agent. As experimental groups, obese mice with oral administration of WHS of 75 mg/kg, 150 mg/kg, or 300 mg/kg, and normal mice with oral administration of WHS of 300 mg/kg were used. Further, experiments were performed by dividing mice into those which were administered with WHS for 12 weeks at the same time with induction of obesity, and those which were administered with WHS after induction of obesity for 10 weeks. WHS was orally administered for 5 days per week during the administration period. A dark: light cycle was maintained at intervals of 12 hours: 12 hours, and mice were allowed to free access to water. To analyze the effects of WHS on blood triglyceride and blood cholesterol, a hematological-biochemical test of the WHS-administered group with induction of obesity was performed using a biochemical analyzer (AU480 Chemistry Analyzer, Beckman coulter, Calif., USA).

Assay [3] in a line: Body weight- and fat-reducing effects of WHS in obese mice. The class given is in vivo. Particulars: obese mice (HFD). As for the experimental part:
as §2, with “water. […] In addition, images of a fat distribution and body fat contents of mice of each experimental group were measured by dual-energy X-ray absorptiometry in” for “water. To analyze”, “the last week” for “the effects of WHS on blood triglyceride and blood cholesterol, a hematological-biochemical test”, “the animal test. […]” for “the WHS-administered group with induction of obesity was performed using a biochemical analyzer (AU480 Chemistry Analyzer, Beckman coulter, Calif., USA).”

Regarding `O=C1OC(c2ccc(O)cc2)Cc2cccc(O)c21` (stereo not shown) [HG, 8-hydroxy-3-(4-hydroxyphenyl)-3,4-dihydroisochromen-1-one], the “phosphorylation of mammalian target of rapamycin (mTOR)” value in assay [1] is recorded as “reduce”. The adipocyte size entry with white adipocytes was “reduced”. The “phosphorylation of forkhead box 01 (FoxO1)” value with forkhead box 01 (FoxO1) is given as “increase”. Moreover, in the assay on 3T3-L1 cells, the “triglyceride production in adipocytes” value is recorded as “suppressed”.
For `CCCCCCCCCCC[C@@H](C[C@@H]1OC(=O)[C@H]1CCCCCC)OC(=O)[C@H](CC(C)C)NC=O` [Orlistat, orlistat], in assay [2], the CHOL was determined as 115.63 mg/dL, the HDL amounted to 83.70 mg/dL, the LDL was 8.60 mg/dL and the TG came to 76.40 mg/dL. For the same compound, the “changes in the body weight” value in assay [3] (oral administration at the same time with induction of obesity (12 weeks) or after induction of obesity (10 weeks), FIGS. 4 and 5) is listed as “body weight-reducing effects were observed”. Also, the “body fat (dual-energy X-ray absorptiometry, fat weight)” value in assay [3] (oral administration at the same time with or after induction of obesity, FIGS. 6, 7, 8, and 9) is given as “decreased”.
